Laboratory results taken from patent US6555333B1, “Broad spectrum fastidious organism culture medium” (priority 2002, dated 2003).
Read-outs that look alike come from different tables or passages of the source. Each block holds one molecule with its values, some of them ahead of it.

Tests used:
Haemophilus influenzae [1] = test: MIC testing (Etest strip) on the culture medium of Example 1; type: cell-based; conditions: for Observed MIC Breakpoints I: I = intermediate; for Observed MIC Breakpoints R: R = resistant; for Observed MIC Breakpoints S: S = susceptible
Source text: (§1) The culture medium of the invention was used in both Minimum Inhibitory Concentration (MIC) testing and Bauer-Kirby Disk Susceptibility testing for the pathogenic bacteria noted in the table below with the antimicrobial agents noted therein using the protocol and standards set forth in NCCLS Bulletin No. M2-A7 and in the Supplemental Tables appendix thereto, the disclosures of which are incorporated herein by reference.
(§2) The general procedure was as follows: pathogenic bacteria specimens were obtained from American Type Culture Collection control lots and 10 isolates were obtained from all species except Campylobacter, from which 6 isolates were obtained. Petri dishes 150 mm in diameter were autoclaved and filled with the culture medium of Example 1 and brought to room temperature. Each plate was then swab-inoculated with a suspension of one of the pathogenic bacteria equivalent to a 0.5 McFarland Standard, and then the antimicrobial-impregnated disk or antimicrobial-impregnated strip for IC measurement (Etest strip from Biodisk AB, of Solna, Sweden) were pressed into the surface of the culture medium. The plates were incubated at 35° C. for 24 hours in atmospheres containing 5-7% CO2 and the disk diffusion zones were measured, with the exception that plates inoculated with the Campylobacter species were placed into microaerophilic chambers from Mitsubishi Gas & Chemical Co. of Japan and incubated at 35° C. for 48 hours. The tests were conducted in duplicate for each pathogenic bacteria/antimicrobial agent combination on three batches of the culture medium of Example 1, for a total of six tests for each combination. Geometric mean MIC values and arithmetic mean values of zone diameters from the Disk Diffusion tests were calculated from the data, and are reported in the table below.

Haemophilus influenzae [2] = test: Bauer-Kirby Disk Susceptibility testing on the culture medium of Example 1; type: cell-based; conditions: for Observed Disk Diff. Breakpoints I: I = intermediate; for Observed Disk Diff. Breakpoints R: R = resistant; for Observed Disk Diff. Breakpoints S: S = susceptible
Source text: as §1, §2

Haemophilus influenzae [3] = conditions: different known culture media; cited from earlier work
S. pneumoniae [4] = test: MIC testing (Etest strip) on the culture medium of Example 1; type: cell-based; conditions: for Observed MIC Breakpoints R: R = resistant; for Observed MIC Breakpoints S: S = susceptible; for Observed MIC Breakpoints I: I = intermediate
Source text: as §1, §2

Viridans streptococci [5] = test: as above; type: cell-based; conditions: for Observed MIC Breakpoints R: R = resistant; for Observed MIC Breakpoints I: I = intermediate; for Observed MIC Breakpoints S: S = susceptible
Source text: as §1, §2

S. pneumoniae [6] = test: Bauer-Kirby Disk Susceptibility testing on the culture medium of Example 1; type: cell-based; conditions: for Observed Disk Diff. Breakpoints R: R = resistant; for Observed Disk Diff. Breakpoints S: S = susceptible; for Observed Disk Diff. Breakpoints I: I = intermediate
Source text: as §1, §2

Viridans streptococci [7] = test: as above; type: cell-based; conditions: for Observed Disk Diff. Breakpoints R: R = resistant; for Observed Disk Diff. Breakpoints S: S = susceptible; for Observed Disk Diff. Breakpoints I: I = intermediate
Source text: as §1, §2

S. pneumoniae [8] = conditions: different known culture media, cited from earlier work
Viridans streptococci [9] = conditions: different known culture media; cited from earlier work
Campylobacter species [10] = test: MIC testing (Etest strip) on the culture medium of Example 1; type: cell-based; conditions: microaerophilic, 48 hours; for Observed MIC Breakpoints R: R = resistant; for Observed MIC Breakpoints S: S = susceptible
Source text: as §1, §2

β-hemolytic streptococci [11] = test: as above; type: cell-based; conditions: for Observed MIC Breakpoints S: S = susceptible
Source text: as §1, §2

Campylobacter species [12] = test: Bauer-Kirby Disk Susceptibility testing on the culture medium of Example 1; type: cell-based; conditions: microaerophilic, 48 hours; for Observed Disk Diff. Breakpoints R: R = resistant; for Observed Disk Diff. Breakpoints S: S = susceptible
Source text: as §1, §2

β-hemolytic streptococci [13] = test: as above; type: cell-based; conditions: for Observed Disk Diff. Breakpoints R: R = resistant
Source text: as §1, §2

β-hemolytic streptococci [14] = conditions: different known culture media; cited from earlier work
Neisseria gonorrhoeae [15] = test: MIC testing (Etest strip) on the culture medium of Example 1; type: cell-based; conditions: for Observed MIC Breakpoints I: I = intermediate; for Observed MIC Breakpoints R: R = resistant; for Observed MIC Breakpoints S: S = susceptible
Source text: as §1, §2

Neisseria gonorrhoeae [16] = test: Bauer-Kirby Disk Susceptibility testing on the culture medium of Example 1; type: cell-based; conditions: for Observed Disk Diff. Breakpoints I: I = intermediate; for Observed Disk Diff. Breakpoints R: R = resistant
Source text: as §1, §2

Neisseria gonorrhoeae [17] = conditions: different known culture media; cited from earlier work
Neisseria meningitides [18] = test: MIC testing (Etest strip) on the culture medium of Example 1; type: cell-based
Source text: as §1, §2

Neisseria meningitides [19] = test: Bauer-Kirby Disk Susceptibility testing on the culture medium of Example 1; type: cell-based
Source text: as §1, §2

Molecule: O=C(N[C@H](CO)[C@H](O)c1ccc([N+](=O)[O-])cc1)C(Cl)Cl [Chloramphenicol]
Observed MIC Breakpoints I (Haemophilus influenzae [1]): 4 µg/mL
Observed MIC Breakpoints R (Haemophilus influenzae [1]): ≧8 μg/mL
Observed MIC Breakpoints S (Haemophilus influenzae [1]): ≦2 μg/mL
Observed Disk Diff. Breakpoints I (Haemophilus influenzae [2]): 20-24 mm
Observed Disk Diff. Breakpoints R (Haemophilus influenzae [2]): ≦19 mm
Observed Disk Diff. Breakpoints S (Haemophilus influenzae [2]): ≧25 mm
Reported MIC Breakpoints (Haemophilus influenzae [3]): (2-8) μg/mL

Molecule: CN(C)[C@@H]1C(O)=C(C(N)=O)C(=O)[C@@]2(O)C(O)=C3C(=O)c4c(O)cccc4[C@@](C)(O)[C@H]3C[C@@H]12 [Tetracycline]
Observed MIC Breakpoints I (Haemophilus influenzae [1]): 4 µg/mL
Observed MIC Breakpoints R (Haemophilus influenzae [1]): ≧8 μg/mL
Observed MIC Breakpoints S (Haemophilus influenzae [1]): ≦2 μg/mL
Observed MIC Breakpoints I (S. pneumoniae [4]): 2 to 4 µg/mL
Observed MIC Breakpoints R (S. pneumoniae [4]): ≧8 μg/mL
Observed MIC Breakpoints S (S. pneumoniae [4]): ≦1 μg/mL
Observed MIC Breakpoints I (Viridans streptococci [5]): 2 to 4 µg/mL
Observed MIC Breakpoints R (Viridans streptococci [5]): ≧8 μg/mL
Observed MIC Breakpoints S (Viridans streptococci [5]): ≦1 μg/mL
Observed Disk Diff. Breakpoints I (Haemophilus influenzae [2]): 19-24 mm
Observed Disk Diff. Breakpoints R (Haemophilus influenzae [2]): ≦20 mm
Observed Disk Diff. Breakpoints S (Haemophilus influenzae [2]): ≧25 mm
Observed Disk Diff. Breakpoints I (S. pneumoniae [6]): 14-22 mm
Observed Disk Diff. Breakpoints R (S. pneumoniae [6]): ≦13 mm
Observed Disk Diff. Breakpoints S (S. pneumoniae [6]): ≧23 mm
Observed Disk Diff. Breakpoints I (Viridans streptococci [7]): 18-22 mm
Observed Disk Diff. Breakpoints R (Viridans streptococci [7]): ≦17 mm
Observed Disk Diff. Breakpoints S (Viridans streptococci [7]): ≧23 mm

Molecule: Penicillin
Observed MIC Breakpoints I (Neisseria gonorrhoeae [15]): 0.12 to 1 µg/mL
Observed MIC Breakpoints R (Neisseria gonorrhoeae [15]): ≧2 μg/mL
Observed MIC Breakpoints S (Neisseria gonorrhoeae [15]): ≦0.06 μg/mL
Observed MIC Breakpoints I (Neisseria meningitides [18]; I = intermediate): 0.25 µg/mL
Observed MIC Breakpoints R (Neisseria meningitides [18]; R = resistant): ≧0.5 μg/mL
Observed MIC Breakpoints S (Neisseria meningitides [18]; S = susceptible): ≦0.12 μg/mL
Observed MIC Breakpoints I (S. pneumoniae [4]; Lower Respiratory Tract): 2 µg/mL
Observed MIC Breakpoints R (S. pneumoniae [4]; Lower Respiratory Tract): ≧4 μg/mL
Observed MIC Breakpoints S (S. pneumoniae [4]; Lower Respiratory Tract): ≦1 μg/mL
Observed MIC Breakpoints I (S. pneumoniae [4]; meningitis): 0.25 to 1 µg/mL
Observed MIC Breakpoints R (S. pneumoniae [4]; meningitis): ≧2 μg/mL
Observed MIC Breakpoints S (S. pneumoniae [4]; meningitis): ≦0.12 μg/mL
Observed MIC Breakpoints I (Viridans streptococci [5]): 2 µg/mL
Observed MIC Breakpoints R (Viridans streptococci [5]): ≧4 μg/mL
Observed MIC Breakpoints S (Viridans streptococci [5]): ≦1 μg/mL
Observed MIC Breakpoints S (β-hemolytic streptococci [11]): 0.12 µg/mL
Observed Disk Diff. Breakpoints I (Neisseria gonorrhoeae [16]): 24-38 mm
Observed Disk Diff. Breakpoints R (Neisseria gonorrhoeae [16]): ≦23 mm
Observed Disk Diff. Breakpoints I (Neisseria meningitides [19]; I = intermediate): 24-25 mm
Observed Disk Diff. Breakpoints R (Neisseria meningitides [19]; R = resistant): ≦23 mm
Observed Disk Diff. Breakpoints S (Neisseria meningitides [19]; S = susceptible): ≧26 mm
Observed Disk Diff. Breakpoints I (Viridans streptococci [7]): 20-23 mm
Observed Disk Diff. Breakpoints R (Viridans streptococci [7]): ≦19 mm
Observed Disk Diff. Breakpoints S (Viridans streptococci [7]): ≧24 mm
Observed Disk Diff. Breakpoints R (β-hemolytic streptococci [13]): ≦26 mm
Reported MIC Breakpoints (S. pneumoniae [8]; meningitis): (0.06-2) μg/mL
Reported MIC Breakpoints (Viridans streptococci [9]): (0.12-4) μg/mL
Reported MIC Breakpoints (Neisseria gonorrhoeae [17]): (0.06-2) μg/mL

The next lines start with results.

Observed MIC Breakpoints I (Haemophilus influenzae [1]): 8 µg/mL
Observed MIC Breakpoints R (Haemophilus influenzae [1]): ≧16 μg/mL
Observed MIC Breakpoints S (Haemophilus influenzae [1]): ≦4 μg/mL
Molecule: CC1(C)S[C@@H]2[C@H](NC(=O)[C@H](N)c3ccccc3)C(=O)N2[C@H]1C(=O)O [Ampicillin]
Observed Disk Diff. Breakpoints I (Haemophilus influenzae [2]): 13-16 mm
Observed Disk Diff. Breakpoints R (Haemophilus influenzae [2]): ≦12 mm
Observed Disk Diff. Breakpoints S (Haemophilus influenzae [2]): ≧17 mm
Reported MIC Breakpoints (Haemophilus influenzae [3]): (1-4) μg/mL

Observed MIC Breakpoints R (S. pneumoniae [4]; Lower Respiratory Tract): ≧8 μg/mL
Observed MIC Breakpoints S (S. pneumoniae [4]; Lower Respiratory Tract): ≦4 μg/mL
Observed MIC Breakpoints I (S. pneumoniae [4]; meningitis): 1 µg/mL
Observed MIC Breakpoints R (S. pneumoniae [4]; meningitis): ≧2 μg/mL
Observed MIC Breakpoints S (S. pneumoniae [4]; meningitis): ≦0.5 μg/mL
Observed MIC Breakpoints R (Viridans streptococci [5]): ≧8 μg/mL
Molecule: CO/N=C(\C(=O)N[C@@H]1C(=O)N2C(C(=O)O)=C(COC(C)=O)CS[C@H]12)c1csc(N)n1 [Cefotaxime]
Observed Disk Diff. Breakpoints R (S. pneumoniae [6]; Lower Respiratory Tract): ≦23 mm
Observed Disk Diff. Breakpoints S (S. pneumoniae [6]; Lower Respiratory Tract): ≧24 mm
Observed Disk Diff. Breakpoints I (S. pneumoniae [6]; meningitis): 26-27 mm
Observed Disk Diff. Breakpoints R (S. pneumoniae [6]; meningitis): ≦25 mm
Observed Disk Diff. Breakpoints S (S. pneumoniae [6]; meningitis): ≧28 mm
Observed Disk Diff. Breakpoints R (Viridans streptococci [7]): ≦23 mm
Observed Disk Diff. Breakpoints S (Viridans streptococci [7]): ≧24 mm
Reported MIC Breakpoints (S. pneumoniae [8]; meningitis): (0.5-2) μg/mL
Reported MIC Breakpoints (Viridans streptococci [9]): (0.5-2) μg/mL

Observed MIC Breakpoints R (Campylobacter species [10]): ≧8 μg/mL
Observed MIC Breakpoints S (Campylobacter species [10]): ≦4 μg/mL
Observed MIC Breakpoints I (S. pneumoniae [4]): 1 to 32 µg/mL
Observed MIC Breakpoints R (S. pneumoniae [4]): ≧64 μg/mL
Observed MIC Breakpoints S (S. pneumoniae [4]): ≦0.5 μg/mL
Observed MIC Breakpoints I (Viridans streptococci [5]): 1 to 32 µg/mL
Observed MIC Breakpoints R (Viridans streptococci [5]): ≧64 μg/mL
Observed MIC Breakpoints S (Viridans streptococci [5]): ≦0.5 μg/mL
Molecule: CC[C@H]1OC(=O)[C@H](C)[C@@H](O[C@H]2C[C@@](C)(OC)[C@@H](O)[C@H](C)O2)[C@H](C)[C@@H](O[C@@H]2O[C@H](C)C[C@H](N(C)C)[C@H]2O)[C@](C)(O)C[C@@H](C)C(=O)[C@H](C)[C@@H](O)[C@]1(C)O [Erythromycin]
Observed MIC Breakpoints I (β-hemolytic streptococci [11]; I = intermediate): 1 to 32 µg/mL
Observed MIC Breakpoints R (β-hemolytic streptococci [11]; R = resistant): ≧64 μg/mL
Observed MIC Breakpoints S (β-hemolytic streptococci [11]): ≦0.5 μg/mL
Observed Disk Diff. Breakpoints R (Campylobacter species [12]): ≦20 mm
Observed Disk Diff. Breakpoints S (Campylobacter species [12]): ≧21 mm
Observed Disk Diff. Breakpoints I (S. pneumoniae [6]): 9-23 mm
Observed Disk Diff. Breakpoints R (S. pneumoniae [6]): ≦8 mm
Observed Disk Diff. Breakpoints S (S. pneumoniae [6]): ≧24 mm
Observed Disk Diff. Breakpoints I (Viridans streptococci [7]): 9-23 mm
Observed Disk Diff. Breakpoints R (Viridans streptococci [7]): ≦8 mm
Observed Disk Diff. Breakpoints S (Viridans streptococci [7]): ≧24 mm
Observed Disk Diff. Breakpoints R (β-hemolytic streptococci [13]): ≦8 mm
Observed Disk Diff. Breakpoints S (β-hemolytic streptococci [13]; S = susceptible): ≧21 mm
Reported MIC Breakpoints (S. pneumoniae [8]): (0.25-1) μg/mL
Reported MIC Breakpoints (Viridans streptococci [9]): (0.25-1) μg/mL
Reported MIC Breakpoints (β-hemolytic streptococci [14]): (0.25-1) μg/mL

Observed MIC Breakpoints I (Campylobacter species [10]; I = intermediate): 1 to 2 µg/mL
Observed MIC Breakpoints R (Campylobacter species [10]): ≧4 μg/mL
Observed MIC Breakpoints S (Campylobacter species [10]): ≦0.5 μg/mL
Observed MIC Breakpoints I (Neisseria gonorrhoeae [15]): 0.12 to 0.5 µg/mL
Observed MIC Breakpoints R (Neisseria gonorrhoeae [15]): ≧1 μg/mL
Observed MIC Breakpoints S (Neisseria gonorrhoeae [15]): ≦0.06 μg/mL
Molecule: O=C(O)c1cn(C2CC2)c2cc(N3CCNCC3)c(F)cc2c1=O [Ciprofloxacin]
Observed Disk Diff. Breakpoints I (Campylobacter species [12]; I = intermediate): 19-26 mm
Observed Disk Diff. Breakpoints R (Campylobacter species [12]): ≦18 mm
Observed Disk Diff. Breakpoints S (Campylobacter species [12]): ≧27 mm
Observed Disk Diff. Breakpoints I (Neisseria gonorrhoeae [16]): 25-34 mm
Observed Disk Diff. Breakpoints R (Neisseria gonorrhoeae [16]): ≦24 mm
Observed Disk Diff. Breakpoints S (Neisseria gonorrhoeae [16]; S = susceptible): ≧35 mm
Reported MIC Breakpoints (Neisseria gonorrhoeae [17]): (0.06-1) μg/mL
